PMC8708704, “Discovery of New Chemical Tools against Leishmania amazonensis via the MMV Pathogen Box” (Pharmaceuticals, 2021)
Where two headings read alike, the source gives them in different places.

Assays:
[1] = system: Leishmania amazonensis promastigotes; test: Leishmanicidal activity against promastigotes (alamarBlue assay; screening at 10 µM and IC50); type: cell-based; conditions: for % of inhibition at 10 µM (against L. amazonensis promastigotes): first screening; for % of inhibition at 10 µM (against L. amazonensis promastigotes) / IC50: 72 h; for IC50: read-out: Leishmania amazonensis Promastigotes IC50; for Selectivity Index (CC50/IC50), promastigotes: macrophage CC50 / promastigote IC50
Procedure: For the experiments, promastigotes of Leishmania amazonensis strain (MHOM/BR/77/LTB0016) were used; they were maintained in RPMI 1640 medium (Gibco, Massachusetts, USA) at 26 °C. […] Subsequently, the plates were analyzed on an EnSpire multimode plate reader (PerkinElmer, MA, USA) to measure their fluorescence after 72 h. […] To this end, serial dilutions were performed in 96 well plates, and incubated with the parasites for 72 h after adding alamarBlue®. Next, the plates were analyzed on the EnSpire plate reader and the IC50 values were calculated by using SigmaPlot 14.0 (Systat Software Inc., Chicago, IL, USA). Each concentration was tested in duplicate and in three independent experiments for all the compounds.

[2] = system: Leishmania amazonensis intracellular amastigote; test: Intracellular amastigote activity (parasite rescue and transformation assay); type: cell-based; conditions: for IC50: Leishmania amazonensis, Macrophage, read-out: Leishmania amazonensis Intracellular Amastigote IC50
Procedure: The intracellular amastigote activity was measured by parasite rescue and transformation assay, also performed according to Jain et al. […] The macrophages were placed in a 96 well plate at a density of 2 × 10^5/mL in DMEM and incubated for 5 h. […] After the incubation, the excess promastigotes were washed off and serial dilutions of the compounds were added. After 24 h of incubation, we removed the medium and added 30 μL of Schneider medium with 0.05% SDS to break the macrophages. The plate was shaken for 30 s and a further 180 μL of medium was added to each well. The plates were then incubated at 26 °C for 72 h for the transformation of the rescued amastigote into promastigotes. AlamarBlue® was added and the plates were measured and analyzed as discussed above.

[3] = Cytotoxic activity against murine macrophages (alamarBlue); conditions: mouse
[4] = Leishmania amazonensis, alamarBlue
[5] = 24 h treatment of infected macrophages, rescue 72 h

CCOc1ccc(-c2nc(CNCCc3ccc(F)cc3)cs2)cc1 [MMV688938]
% of inhibition at 10 µM (against L. amazonensis promastigotes) [1]: 85%

N#Cc1nc(-c2ccccc2)oc1S(=O)(=O)c1ccc(Cl)cc1 [Compound 2]
IC50 [1, 4]: 4.03 ± 0.73 µM | Selectivity Index (CC50/IC50), promastigotes [1]: >2.48 | IC50 [2, 5]: > 10 µM | CC50 at 24 h ([3]; J774A.1 murine macrophages): > 10 µM

Cc1cnc(N2CCN[C@@H](Cc3ccccc3)C2)nc1Oc1ccc(-n2ccnc2)cc1 [MMV687765]
% of inhibition at 10 µM (against L. amazonensis promastigotes) [1]: 82%

COC(=O)c1c(NC(=O)c2c(F)c(F)c(F)c(F)c2F)sc2c1CCCCC2 [MMV461553]
% of inhibition at 10 µM (against L. amazonensis promastigotes) [1]: 88%

CC(C)=CCC/C(C)=C\CNCCNC1C2CC3CC(C2)CC1C3 (stereo not shown) [MMV687273]
% of inhibition at 10 µM (against L. amazonensis promastigotes) [1]: 89%

O[C@@H](c1cc(C(F)(F)F)nc2c(C(F)(F)F)cccc12)[C@H]1CCCCN1 [MMV000016, reference compound]
% of inhibition at 10 µM (against L. amazonensis promastigotes) [1]: 86%

CN(C)c1cc(NC(=O)Nc2ccccc2)c2ccccc2n1 [MMV006901]
% of inhibition at 10 µM (against L. amazonensis promastigotes) [1]: 85%

Cc1ccc2oc(-c3cc(NC(=O)Cc4ccccc4)ccc3Cl)nc2c1 [MMV676509]
% of inhibition at 10 µM (against L. amazonensis promastigotes) [1]: 80%

CN1CCN(S(=O)(=O)c2ccc(-c3ccc4c(Nc5ncc(Cl)cn5)ccnc4c3)cc2)CC1 [MMV688283]
% of inhibition at 10 µM (against L. amazonensis promastigotes) [1]: 85%

Cc1ccc(NC(=O)c2nc[nH]c2C(=O)Nc2nc3ccccc3[nH]2)c(C)c1 [MMV011903]
% of inhibition at 10 µM (against L. amazonensis promastigotes) [1]: 86%

COc1cccc(-n2nnnc2S(C)(=O)=O)c1 [MMV272144]
% of inhibition at 10 µM (against L. amazonensis promastigotes) [1]: 89%

CS(=O)(=O)c1ccc(C(=O)N(CC2CCCO2)c2nc3ccccc3s2)cc1[N+](=O)[O-] (stereo not shown) [MMV688761]
% of inhibition at 10 µM (against L. amazonensis promastigotes) [1]: 88%

CC(C)n1nc(-c2cc3c(Cl)cccc3[nH]2)c2c(N)ncnc21 [MMV688417]
% of inhibition at 10 µM (against L. amazonensis promastigotes) [1]: 87%

CC(=O)OC[C@H]1O[C@@H]([S-])[C@H](OC(C)=O)[C@@H](OC(C)=O)[C@@H]1OC(C)=O.CC[PH+](CC)CC.[Au] [MMV688978, reference compound]
% of inhibition at 10 µM (against L. amazonensis promastigotes) [1]: 90%

Cc1ccc(S(=O)(=O)n2cc(-c3ccnc(N)c3)c3cc(Br)cnc32)cc1 [MMV024114]
% of inhibition at 10 µM (against L. amazonensis promastigotes) [1]: 92%

CCOC(=O)c1c(NC(=O)c2c(F)c(F)c(F)c(F)c2F)sc(C(N)=O)c1C [MMV153413]
% of inhibition at 10 µM (against L. amazonensis promastigotes) [1]: 86%

O=C(c1ccco1)N(CCCn1ccnc1)c1nc2c(Cl)cccc2s1 [MMV688936]
% of inhibition at 10 µM (against L. amazonensis promastigotes) [1]: 90%

CC(C)N=c1cc2n(-c3ccc(Cl)cc3)c3ccccc3nc-2cc1Nc1ccc(Cl)cc1 [MMV687800, reference compound]
% of inhibition at 10 µM (against L. amazonensis promastigotes) [1]: 88%

Cc1nc(-c2ccccn2)nc(N2CCC(Cc3ccccc3)C2)c1Cl (stereo not shown) [MMV659004]
% of inhibition at 10 µM (against L. amazonensis promastigotes) [1]: 87%

N=C(N)c1ccc(OCCCCCOc2ccc(C(=N)N)cc2)cc1 [MMV000062, reference compound]
% of inhibition at 10 µM (against L. amazonensis promastigotes) [1]: 89%

COc1ccc(Oc2ccc([C@@H](C)N(C)c3ncc4c(N)nc(N)nc4n3)cc2)cc1 [MMV690102]
% of inhibition at 10 µM (against L. amazonensis promastigotes) [1]: 89%

CO/N=C(/C(=O)OC)c1ccccc1CO/N=C(/C)c1cccc(C(F)(F)F)c1 [MMV688754]
% of inhibition at 10 µM (against L. amazonensis promastigotes) [1]: 76%

O=C(Nc1ccc(C(F)(F)F)c(C(F)(F)F)c1)c1cc(Cl)ccc1O [MMV687807]
% of inhibition at 10 µM (against L. amazonensis promastigotes) [1]: 90%

NCCN(C(=O)c1ccc(Cl)cc1Cl)c1ccc(OCc2ccc(Cl)cc2)cc1 [MMV688371]
% of inhibition at 10 µM (against L. amazonensis promastigotes) [1]: 89%

CC(c1cc(Cl)cc(Cl)c1)N(C)c1ncc2c(N)nc(N)nc2n1 (stereo not shown) [MMV689437]
% of inhibition at 10 µM (against L. amazonensis promastigotes) [1]: 89%

Cc1cc(C2=NOC(c3cc(Cl)c(F)c(Cl)c3)(C(F)(F)F)C2)ccc1C(=O)NCc1ccc2c(c1)C(C)(C)OB2O (stereo not shown) [MMV687776]
% of inhibition at 10 µM (against L. amazonensis promastigotes) [1]: 52%

CNc1nnc(Sc2cnn(-c3ccccc3)c(=O)c2Cl)s1 [MMV688763]
% of inhibition at 10 µM (against L. amazonensis promastigotes) [1]: 86%

Brc1cncc(-c2cc(NCCCn3ccnc3)nc(-c3ccccc3)n2)c1 [MMV661713]
% of inhibition at 10 µM (against L. amazonensis promastigotes) [1]: 84%

Cc1ncc(-c2ccnc(Nc3ccc(S(C)(=O)=O)cc3)n2)n1C(C)C [MMV676604]
% of inhibition at 10 µM (against L. amazonensis promastigotes) [1]: 66%

CCc1c(C)nc(-n2nc(C)cc2NC(=O)c2ccccc2SC)[nH]c1=O [MMV676477]
% of inhibition at 10 µM (against L. amazonensis promastigotes) [1]: 92%

N#Cc1nc(-c2ccccc2)oc1S(=O)(=O)c1ccc(Cl)cc1 [MMV676412]
% of inhibition at 10 µM (against L. amazonensis promastigotes) [1]: 93%

O=C(Nc1ccc(F)c(-c2nc3ncc(-c4ccccc4)cc3[nH]2)c1)N1CCCC1 [MMV688372]
% of inhibition at 10 µM (against L. amazonensis promastigotes) [1]: 87%

COc1nc2ccc(Br)cc2cc1[C@@H](c1ccccc1)[C@@](O)(CCN(C)C)c1cccc2ccccc12 [Compound 1, Bedaquiline, reference compound]
IC50 ([1]; Leishmania amazonensis): 6.43 ± 1.06 µM | Selectivity Index (CC50/IC50), promastigotes [1]: >1.56 | IC50 [2]: > 10 µM | CC50 at 24 h [3]: > 10 µM

NC(N)=Nc1ccc(-c2ccc(-c3ccc(N=C(N)N)cc3Cl)o2)c(Cl)c1 [MMV688179]
% of inhibition at 10 µM (against L. amazonensis promastigotes) [1]: 86%

CN1CCN(CCCOc2ncc(Nc3ncc(-c4ccc(C(F)(F)F)c(F)c4)nc3C(N)=O)cn2)CC1 [Compound 8]
IC50 [1, 4]: 2.62 ± 0.4 µM | Selectivity Index (CC50/IC50), promastigotes [1]: 3.06 | IC50 [2, 5]: 6.85 ± 0.75 µM | Selectivity Index (CC50/IC50), intracellular amastigote ([2]; macrophage CC50 / amastigote IC50): 1.17 | CC50 at 24 h ([3]; J774A.1 murine macrophages): 8.01 ± 1.13 µM

COc1ccc2nccc(NC(=O)C3CCN(CCc4ccc(Cl)cc4)CC3)c2n1 [MMV688844]
% of inhibition at 10 µM (against L. amazonensis promastigotes) [1]: 80%

CCC(Sc1nc2ccccc2o1)C(=O)Nc1nccs1 (stereo not shown) [MMV676383]
% of inhibition at 10 µM (against L. amazonensis promastigotes) [1]: 83%

CC1(O)CC(c2nc(-c3ccc4ccc(-c5ccccc5)nc4c3)c3c(N)nccn23)C1 (stereo not shown) [MMV676605]
% of inhibition at 10 µM (against L. amazonensis promastigotes) [1]: 53%

COc1cccc(-c2nc3c(N4CCCC4)cccc3n2CC2CCCN2)n1 (stereo not shown) [MMV687703]
% of inhibition at 10 µM (against L. amazonensis promastigotes) [1]: 85%

Cn1c(=O)c2c(S(C)(=O)=O)snc2n(C)c1=O [Compound 4]
IC50 [1, 4]: < 2 µM | IC50 ([1]; alamarBlue): 1.44 ± 0.24 µM | Selectivity Index (CC50/IC50), promastigotes [1]: 2.94 | IC50 [2, 5]: > 10 µM | CC50 at 24 h ([3]; J774A.1 murine macrophages): 4.3 ± 0.16 µM

Cc1[nH]c2cc(F)cc(F)c2c(=O)c1-c1ccc(Oc2ccc(OC(F)(F)F)cc2)cc1 [MMV671636]
% of inhibition at 10 µM (against L. amazonensis promastigotes) [1]: 66%

Nc1ccc2ncnc(Nc3ccc(OCc4cccc(F)c4)c(Cl)c3)c2c1 [MMV688273]
% of inhibition at 10 µM (against L. amazonensis promastigotes) [1]: 79%

Cc1cc(NCCc2ccccc2)nc(NC(=N)Nc2ccc(Cl)cc2)n1 [MMV021660]
% of inhibition at 10 µM (against L. amazonensis promastigotes) [1]: 87%

c1coc(CNc2nc(N3CCCCC3)nc3ccccc23)c1 [MMV676401]
% of inhibition at 10 µM (against L. amazonensis promastigotes) [1]: 84%

Cc1[nH]c2ccccc2c1C(c1cccs1)N1CCN(C)CC1 (stereo not shown) [MMV688768]
% of inhibition at 10 µM (against L. amazonensis promastigotes) [1]: 86%

Cc1ccc(-c2nc(CN(Cc3ccccn3)C(C)C)cs2)o1 [MMV1088520]
% of inhibition at 10 µM (against L. amazonensis promastigotes) [1]: 89%

C[C@]1(COc2ccc(N3CCC(Oc4ccc(OC(F)(F)F)cc4)CC3)cc2)Cn2cc([N+](=O)[O-])nc2O1 [MMV688262]
% of inhibition at 10 µM (against L. amazonensis promastigotes) [1]: 86%

O=C(Nc1cccc(Cl)c1)c1cnc(N2CCN(c3ccncc3)CC2)c(Cl)c1 [MMV024406]
% of inhibition at 10 µM (against L. amazonensis promastigotes) [1]: 92%

COc1nc2ccc(Br)cc2cc1[C@@H](c1ccccc1)[C@@](O)(CCN(C)C)c1cccc2ccccc12 [MMV689758, reference compound]
% of inhibition at 10 µM (against L. amazonensis promastigotes) [1]: 90%

CCCCOC(=O)Nc1cc2[nH]c(C3CCCCC3)nc2cc1N1CCCC1 [MMV687730]
% of inhibition at 10 µM (against L. amazonensis promastigotes) [1]: 87%
